These results are taken from patent US20260092071A1, “COMPOUNDS AND COMPOSITIONS AS SMARCA2/4 DEGRADERS AND USES THEREOF” (REGENTS OF THE UNIVERSITY OF MICHIGAN, priority 2022, published 2026).

As usually defined, the Dmax is the greatest extent of degradation seen. Usually DC50 stands for the concentration giving 50% degradation.

One assay deals with SMARCA4 (Homo sapiens, UniProt P51532). Nature of the assay: HiBiT assay for protein degradation, Hela SMARCA4-HiBiT cells (A series). The assay is classed as cell-based. On the set-up: fuse HiBiT to the carboxy terminus of SMARCA2 (Promega CS302365) or SMARCA4 (Promega CS3023225); host or cells: HeLa (CRISPR/Cas9 HiBiT knock-in). The settings on record: Hela SMARCA4-HiBiT cells, 24 hours treatment; for Dmax: read-out: SMARC A4 Hela HiBit Dmax; for DC50: read-out: SMARC A4 Hela HiBit DC50. A digest of the protocol:
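HeLa cells engineered by CRISPR/Cas9 to carry a HiBiT tag fused to the C-terminus of SMARCA4 (Promega CS3023225) were grown in DMEM supplemented with FBS and penicillin-streptomycin. After compound exposure, remaining SMARCA4 protein was quantified using the Nano-Glo® HiBiT Lytic Detection Assay (Promega N3050), and curves were fitted in GraphPad Prism.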
(In general: HiBiT is a short tag that completes a luciferase, so light tracks the accessible tagged protein.)

The next assay addresses SMARCA2 (Homo sapiens, UniProt P51531). Nature of the assay: HiBiT assay for protein degradation, Hela SMARCA2-HiBiT cells (A series).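 As to SMARC A2 Hela HiBit Dmax (%): 24 h compound treatment.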 The format is cell-based. On the set-up: Hela cells were genetically modified via CRISPR/Cas9 to fuse HiBiT to the carboxy terminus of SMARCA2; host or cells: HeLa (CRISPR/Cas9 HiBiT knock-in). The settings on record: Hela SMARCA2-HiBiT cells, 24 hours treatment; for DC50: read-out: SMARC A2 Hela HiBit DC50; for Dmax: read-out: SMARC A2 Hela HiBit Dmax (%). A digest of the protocol: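 HeLa cells engineered by CRISPR/Cas9 to carry a HiBiT tag fused to the C-terminus of SMARCA2 (Promega CS302365) were grown in DMEM supplemented with FBS and penicillin-streptomycin. After treatment, remaining SMARCA2 protein was quantified with the Nano-Glo® HiBiT Lytic Detection Assay (Promega N3050), and curves were fitted in GraphPad Prism.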

Chain of SMARCA4 (P51532 whole entry, the tested form may be a part): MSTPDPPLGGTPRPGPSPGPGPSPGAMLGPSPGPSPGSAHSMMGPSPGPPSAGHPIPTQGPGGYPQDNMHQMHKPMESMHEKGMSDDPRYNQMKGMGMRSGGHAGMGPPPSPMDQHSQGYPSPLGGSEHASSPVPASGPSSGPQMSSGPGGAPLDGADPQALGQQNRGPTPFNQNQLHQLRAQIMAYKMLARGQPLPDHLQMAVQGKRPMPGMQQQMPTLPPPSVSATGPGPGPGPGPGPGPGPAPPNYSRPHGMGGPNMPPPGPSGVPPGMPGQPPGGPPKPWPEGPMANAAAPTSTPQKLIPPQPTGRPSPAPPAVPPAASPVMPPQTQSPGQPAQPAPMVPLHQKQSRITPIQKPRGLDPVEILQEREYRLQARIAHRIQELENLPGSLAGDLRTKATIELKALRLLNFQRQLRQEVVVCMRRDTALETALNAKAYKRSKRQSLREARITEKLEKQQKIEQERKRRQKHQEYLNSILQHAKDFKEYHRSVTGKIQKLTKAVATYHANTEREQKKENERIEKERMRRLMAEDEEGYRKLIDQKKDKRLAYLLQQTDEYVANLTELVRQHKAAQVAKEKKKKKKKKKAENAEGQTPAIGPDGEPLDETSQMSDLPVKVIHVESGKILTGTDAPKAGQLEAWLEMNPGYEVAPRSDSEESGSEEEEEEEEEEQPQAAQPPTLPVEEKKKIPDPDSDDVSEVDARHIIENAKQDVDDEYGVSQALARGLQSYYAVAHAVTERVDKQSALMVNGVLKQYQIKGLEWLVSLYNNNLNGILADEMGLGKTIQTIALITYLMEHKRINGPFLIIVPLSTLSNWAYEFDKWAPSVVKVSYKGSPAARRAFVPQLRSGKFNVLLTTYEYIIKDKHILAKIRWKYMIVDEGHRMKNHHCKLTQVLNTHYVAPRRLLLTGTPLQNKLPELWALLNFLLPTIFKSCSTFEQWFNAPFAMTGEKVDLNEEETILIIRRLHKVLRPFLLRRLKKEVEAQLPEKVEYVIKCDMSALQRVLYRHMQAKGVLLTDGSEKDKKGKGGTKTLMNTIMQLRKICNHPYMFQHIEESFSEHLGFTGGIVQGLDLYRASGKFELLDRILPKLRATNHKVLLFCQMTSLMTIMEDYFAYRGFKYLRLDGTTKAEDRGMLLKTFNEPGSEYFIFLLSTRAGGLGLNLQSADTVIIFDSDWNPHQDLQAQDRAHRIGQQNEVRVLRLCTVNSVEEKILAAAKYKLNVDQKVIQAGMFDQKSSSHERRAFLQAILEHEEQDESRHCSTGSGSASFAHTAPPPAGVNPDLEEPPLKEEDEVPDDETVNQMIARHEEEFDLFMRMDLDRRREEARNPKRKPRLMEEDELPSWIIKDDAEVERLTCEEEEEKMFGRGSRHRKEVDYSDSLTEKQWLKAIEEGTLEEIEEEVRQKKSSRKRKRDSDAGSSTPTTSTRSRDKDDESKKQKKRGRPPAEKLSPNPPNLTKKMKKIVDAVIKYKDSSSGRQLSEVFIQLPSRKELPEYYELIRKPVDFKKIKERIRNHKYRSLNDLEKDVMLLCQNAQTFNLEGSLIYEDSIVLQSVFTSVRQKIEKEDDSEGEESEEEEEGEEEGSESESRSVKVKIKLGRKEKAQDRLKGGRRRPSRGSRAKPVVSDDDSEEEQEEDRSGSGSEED
Chain of SMARCA2 (P51531 whole entry, the tested form may be a part): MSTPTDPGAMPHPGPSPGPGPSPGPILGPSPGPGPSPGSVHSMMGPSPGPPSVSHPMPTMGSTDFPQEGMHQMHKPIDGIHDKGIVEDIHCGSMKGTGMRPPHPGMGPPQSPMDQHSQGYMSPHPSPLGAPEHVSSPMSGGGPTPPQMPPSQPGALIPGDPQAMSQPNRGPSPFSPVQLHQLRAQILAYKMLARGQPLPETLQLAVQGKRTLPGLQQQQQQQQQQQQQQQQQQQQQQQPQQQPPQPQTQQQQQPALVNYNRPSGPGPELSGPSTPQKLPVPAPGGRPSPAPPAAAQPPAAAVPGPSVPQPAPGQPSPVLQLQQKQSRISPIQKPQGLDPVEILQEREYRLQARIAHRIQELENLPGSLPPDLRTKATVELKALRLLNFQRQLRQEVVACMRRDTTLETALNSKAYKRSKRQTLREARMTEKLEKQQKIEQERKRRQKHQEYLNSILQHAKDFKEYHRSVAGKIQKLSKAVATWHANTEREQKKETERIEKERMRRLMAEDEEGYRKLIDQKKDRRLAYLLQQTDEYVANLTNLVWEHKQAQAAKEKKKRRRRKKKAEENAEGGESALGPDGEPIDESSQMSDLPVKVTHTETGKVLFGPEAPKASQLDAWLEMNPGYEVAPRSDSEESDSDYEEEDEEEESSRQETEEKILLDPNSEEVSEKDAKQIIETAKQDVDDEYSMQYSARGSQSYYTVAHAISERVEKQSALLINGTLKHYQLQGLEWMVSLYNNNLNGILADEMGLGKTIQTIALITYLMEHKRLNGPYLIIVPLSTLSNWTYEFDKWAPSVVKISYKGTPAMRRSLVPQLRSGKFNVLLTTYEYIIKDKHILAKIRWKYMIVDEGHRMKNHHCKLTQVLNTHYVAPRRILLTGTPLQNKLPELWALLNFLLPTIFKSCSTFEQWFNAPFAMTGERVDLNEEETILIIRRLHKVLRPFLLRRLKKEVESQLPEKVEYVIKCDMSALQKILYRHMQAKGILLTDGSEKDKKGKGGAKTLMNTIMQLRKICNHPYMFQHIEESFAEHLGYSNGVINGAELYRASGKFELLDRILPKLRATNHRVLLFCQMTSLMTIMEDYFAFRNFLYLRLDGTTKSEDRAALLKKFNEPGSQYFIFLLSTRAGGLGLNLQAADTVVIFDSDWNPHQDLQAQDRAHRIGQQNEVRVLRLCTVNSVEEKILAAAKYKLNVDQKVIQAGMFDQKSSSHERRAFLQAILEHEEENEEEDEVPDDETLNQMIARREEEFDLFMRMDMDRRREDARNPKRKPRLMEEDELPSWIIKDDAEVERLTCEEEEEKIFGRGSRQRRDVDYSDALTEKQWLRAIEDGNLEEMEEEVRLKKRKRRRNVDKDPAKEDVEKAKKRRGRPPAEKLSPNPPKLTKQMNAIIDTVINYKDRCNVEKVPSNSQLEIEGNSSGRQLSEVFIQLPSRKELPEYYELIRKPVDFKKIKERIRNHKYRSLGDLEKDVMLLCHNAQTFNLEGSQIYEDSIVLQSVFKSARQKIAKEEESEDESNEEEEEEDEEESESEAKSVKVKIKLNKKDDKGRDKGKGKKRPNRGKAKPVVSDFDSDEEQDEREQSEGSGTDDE

For `Cc1ncsc1-c1ccc([C@H](CN2CCOCC2)NC(=O)[C@@H]2C[C@@H](O)CN2C(=O)[C@H](C2CCCCC2)n2cc([C@H]3CC[C@H](CN4CCC(c5ccc6c(c5)-n5c(nc(=O)c7c(Cl)cccc75)C65CCCCC5)CC4)CC3)nn2)cc1` [Compound A122, (2S,4R)-1-((S)-2-(4-((1r,4S)-4-((4-(4′-chloro-5′-oxo-5′H-spiro[cyclohexane-1,7′-indolo[1,2-a]quinazolin]-10′-yl)piperidin-1-yl)methyl)cyclohexyl)-1H-1,2,3-triazol-1-yl)-2-cyclohexylacetyl)-4-hydroxy-N—((R)-1-(4-(4-methylthiazol-5-yl)phenyl)-2-morpholinoethyl)pyrrolidine-2-carboxamide], at SMARCA4, the “SMARC A4 Hela HiBit DC50(nM)” value was “No fit” and the Dmax lay in the range of 50 to 69%. Moreover, at SMARCA2, the DC50 is below 0.01 µM and the Dmax is above 90%.

As to `Cc1ncsc1-c1ccc([C@H](CN2CCOCC2)NC(=O)[C@@H]2C[C@@H](O)CN2C(=O)[C@H](C2CCCCC2)n2cc([C@H]3CC[C@H](CN4CCC(c5ccc6c(c5)-n5c(nc(=O)c7c(Br)cccc75)C65CCCCC5)CC4)CC3)nn2)cc1` [Compound A123, (2S,4R)-1-((S)-2-(4-((1r,4S)-4-((4-(4′-bromo-5′-oxo-5′H-spiro[cyclohexane-1,7′-indolo[1,2-a]quinazolin]-10′-yl)piperidin-1-yl)methyl)cyclohexyl)-1H-1,2,3-triazol-1-yl)-2-cyclohexylacetyl)-4-hydroxy-N—((R)-1-(4-(4-methylthiazol-5-yl)phenyl)-2-morpholinoethyl)pyrrolidine-2-carboxamide], on SMARCA4, the 50% degradation concentration (DC50) lay in the range of 0.01 to 0.1 µM and the Dmax lay in the range of 70 to 90%. Moreover, at SMARCA2, the half-maximal degradation concentration (DC50) is below 0.01 µM and the Dmax is above 90%.

`Cc1ncsc1-c1ccc([C@H](C)NC(=O)[C@@H]2C[C@@H](O)CN2C(=O)[C@H](C2CCCCC2)n2cc([C@H]3CC[C@H](CN4CCC(c5ccc6c(c5)-n5c(nc(=O)c7c(Cl)cccc75)C6(C)C)CC4)CC3)nn2)cc1` [Compound A124, (2S,4R)-1-((S)-2-(4-((1r,4S)-4-((4-(4-chloro-7,7-dimethyl-5-oxo-5,7-dihydroindolo[1,2-a]quinazolin-10-yl)piperidin-1-yl)methyl)cyclohexyl)-1H-1,2,3-triazol-1-yl)-2-cyclohexylacetyl)-4-hydroxy-N—((S)-1-(4-(4-methylthiazol-5-yl)phenyl)ethyl)pyrrolidine-2-carboxamide]: on SMARCA4, the “SMARC A4 Hela HiBit DC50(nM)” value is “No fit” and the greatest degradation seen (Dmax) was below 50%. On SMARCA2, the 50% degradation concentration (DC50) was below 0.01 µM and the maximal degradation (Dmax) is above 90%.

For `Cc1ncsc1-c1ccc([C@H](CN2CCOCC2)NC(=O)[C@@H]2C[C@@H](O)CN2C(=O)[C@H](C2CCCCC2)n2cc([C@H]3CC[C@H](CN4CCC(c5ccc6c(c5)-n5c(nc(=O)c7c(Cl)cccc75)C6(C)C)CC4)CC3)nn2)cc1` [Compound A125, (2S,4R)-1-((S)-2-(4-((1r,4S)-4-((4-(4-chloro-7,7-dimethyl-5-oxo-5,7-dihydroindolo[1,2-a]quinazolin-10-yl)piperidin-1-yl)methyl)cyclohexyl)-1H-1,2,3-triazol-1-yl)-2-cyclohexylacetyl)-4-hydroxy-N—((R)-1-(4-(4-methylthiazol-5-yl)phenyl)-2-morpholinoethyl)pyrrolidine-2-carboxamide], on SMARCA4, the “SMARC A4 Hela HiBit DC50(nM)” value is “No fit” and the Dmax was 50 to 69%. At SMARCA2, the DC50 is below 0.01 µM and the greatest degradation seen (Dmax) is above 90%.

With `Cc1ncsc1-c1ccc([C@H](CO)NC(=O)[C@@H]2C[C@@H](O)CN2C(=O)[C@H](C2CCCCC2)n2cc([C@H]3CC[C@H](CN4CCC(c5ccc6c(c5)-n5c(nc(=O)c7c(Cl)cccc75)C65CCCCC5)CC4)CC3)nn2)cc1` [Compound A126, (2S,4R)-1-((S)-2-(4-((1r,4S)-4-((4-(4′-chloro-5′-oxo-5′H-spiro[cyclohexane-1,7′-indolo[1,2-a]quinazolin]-10′-yl)piperidin-1-yl)methyl)cyclohexyl)-1H-1,2,3-triazol-1-yl)-2-cyclohexylacetyl)-4-hydroxy-N—((R)-2-hydroxy-1-(4-(4-methylthiazol-5-yl)phenyl)ethyl)pyrrolidine-2-carboxamide], on SMARCA4, the DC50 lay within 0.01 to 0.1 µM and the greatest degradation seen (Dmax) was in the range of 50 to 69%. Also, on SMARCA2, the half-maximal degradation concentration (DC50) was below 0.01 µM and the Dmax was above 90%.

`Cc1ncsc1-c1ccc([C@H](CO)NC(=O)[C@@H]2C[C@@H](O)CN2C(=O)[C@H](C2CCCCC2)n2cc([C@H]3CC[C@H](CN4CCC(c5ccc6c(c5)-n5c(nc(=O)c7c(Br)cccc75)C65CCCCC5)CC4)CC3)nn2)cc1` [Compound A127]: the 50% degradation concentration (DC50) on SMARCA4 and on SMARCA2 was below 0.01 µM throughout. Besides, the values for the maximal degradation (Dmax) at SMARCA4 and on SMARCA2 were 70 to 90% and above 90%, respectively.

For `Cc1ncsc1-c1ccc([C@H](CN2CCOCC2)NC(=O)[C@@H]2C[C@@H](O)CN2C(=O)[C@H](C2CCCCC2)n2cc(-c3ccc(CN4CCC(c5ccc6c(c5)-n5c(nc(=O)c7c(Br)cccc75)C65CCCCC5)CC4)cc3)nn2)cc1` [Compound A128, (2S,4R)-1-((S)-2-(4-(4-((4-(4′-bromo-5′-oxo-5′H-spiro[cyclohexane-1,7′-indolo[1,2-a]quinazolin]-10′-yl)piperidin-1-yl)methyl)phenyl)-1H-1,2,3-triazol-1-yl)-2-cyclohexylacetyl)-4-hydroxy-N—((R)-1-(4-(4-methylthiazol-5-yl)phenyl)-2-morpholinoethyl)pyrrolidine-2-carboxamide], on SMARCA4, the DC50 is above 1 µM and the Dmax was below 50%. Besides, on SMARCA2, the half-maximal degradation concentration (DC50) fell in the range of 0.1 to 1 µM and the Dmax fell in the range of 50 to 69%.

For the compound `Cc1ncsc1-c1ccc([C@H](CO)NC(=O)[C@@H]2C[C@@H](O)CN2C(=O)[C@H](C2CCCCC2)n2cc(-c3ccc(CN4CCC(c5ccc6c(c5)-n5c(nc(=O)c7c(Br)cccc75)C65CCCCC5)CC4)cc3)nn2)cc1` [Compound A129], on SMARCA4, the DC50 was above 1 µM and the Dmax is below 50%. At SMARCA2, the DC50 lay in the range of 0.1 to 1 µM and the Dmax was 50 to 69%.

With `Cc1ncsc1-c1ccc([C@H](CN2CCOCC2)NC(=O)[C@@H]2C[C@@H](O)CN2C(=O)[C@H](C2CCCCC2)n2cc([C@H]3CC[C@H](CN4CCC(c5ccc6c(c5)-n5c(nc(=O)c7c(Cl)cccc75)C65CCCCC5)C4)CC3)nn2)cc1` (stereo partly drawn) [Compound A130, (2S,4R)-1-((2S)-2-(4-((1r,4S)-4-((3-(4′-chloro-5′-oxo-5′H-spiro[cyclohexane-1,7′-indolo[1,2-a]quinazolin]-10′-yl)pyrrolidin-1-yl)methyl)cyclohexyl)-1H-1,2,3-triazol-1-yl)-2-cyclohexylacetyl)-4-hydroxy-N—((R)-1-(4-(4-methylthiazol-5-yl)phenyl)-2-morpholinoethyl)pyrrolidine-2-carboxamide], on SMARCA4, the DC50 was above 1 µM and the Dmax was below 50%. Also, at SMARCA2, the DC50 is 0.01 to 0.1 µM and the greatest degradation seen (Dmax) is above 90%.
